# Measurements taken from patent EP1142584A1, “COMPOSITIONS FOR TREATING FREQUENT URINATION AND URINARY INCONTINENCE” (Takeda Chemical Industries, Ltd., priority 1999, dated 2000).
# Structures can show the parent of a compound that is named as a salt. Marks after values point to notes of the source that are not given here.
# Key:
# Format in all cases: in vivo
# [1] = system: rhythmic bladder contractions in urethane-anesthetized rats; assay: Rhythmic bladder contractions in urethane-anesthetized rats (Test Example 2); conditions: mean ± standard error; for Reflex shutdown time: maximum observation period 30 minutes
# Experimental: The urinary frequency and urinary incontinence suppressing activity of a GABA uptake inhibitor was measured as the ability to abolish the rhythmic bladder contractions in urethane-anesthetized rats as an index. An urethra was ligated, a constant volume of physiological saline warmed at 39°C was injected into the bladder to distend the detrusor muscle, and the regular rhythmic bladder contractions at a constant interval were observed. After the stable bladder contractions were confirmed, a compound was administered intravenously to investigate the activities. A time for completely suppressing the rhythmic bladder contractions after the drug administration (reflex shutdown time, a maximum observation period was 30 minutes) and a maximum contractile intravesical pressure at which the bladder contraction appeared again after the administration was measured. […] Table 2 Tiagabin hydrochloride was dissolved in distilled water, other drugs were dissolved in physiological saline, and the drugs were administered intravenously, respectively. Data are shown as mean ± standard error. *P<0.05, **P<0.01 (significance relative to the vehicle-administered control group, nonparametric Dunnett multiple comparison test, two-tailed test) ^#P<0.05 (significance to the values obtained before drug administration, paired t test, two-tailed test). A maximum contractile pressure was calculated from animals from which the bladder constriction was obtained in an observation period.
# [2] = system: unilaterally decerebrated rat under consciousness; assay: Micturition interval in unilaterally decerebrated rat under consciousness (Test Example 5); conditions: for Micturition interval (min.) After administration / Micturition pressure (mmHg) After administration / Micturition interval (min.) Before administration / Micturition pressure (mmHg) Before administration: mean ± standard error; for Micturition interval (min.) Before administration / Micturition pressure (mmHg) Before administration: 30 minutes before drug
# Experimental: The urinary frequency and urinary incontinence activity of a GABA uptake inhibitor was measured as the ability to increase the micturition interval in a unilaterally decerebrated rat under consciousness as an index. Animals were restricted in a Ballmann cage, and physiological saline was sustained-injected into the bladder at a constant rate (0.05 ml/min.) to induce repeated micturition. In a unilaterally decerebrated rat, micturition interval was decreased, and after the stable micturition interval was confirmed, a drug was administered intravenously or orally to investigate the activity (Table 5 and Table 6). The micturition interval and micturition pressure before and after drug administration were measured for 30 minutes, and the mean values were compared.
# A drug was administered intravenously. Cystometogram was continuously measured for 30 minutes starting 15 minutes after drug administration, and it was compared with that for 30 minutes before drug administration. Data are shown as the means ± standard error. *P<0.05 **P<0.01 (significance to before administration, paired t test, two-tailed test) Table 6
# A drug was administered orally. A bladder inner pressure curve was continuously measured for 30 minutes starting 60 minutes after drug administration, and it was compared with that for 30 minutes before drug administration. Data are shown as the mean ± standard error. *P<0.05 (significance relative to drug administration, paired t test, two-tailed test)
# [3] = system: bladder capacity in urethane-anesthetized rats; assay: Bladder capacity (cystometry) in urethane-anesthetized rats (Test Example 3); conditions: mean ± standard error
# Experimental: The urinary frequency and urinary incontinence suppressing activity of a GABA uptake inhibitor was shown by the ability to increase bladder capacity in urethane-anesthetized rats. After a bladder was made empty by drawing out the urine, physiological saline warmed at 39°C was injected into the bladder at a constant rate (0.05 ml/min.) to induce micturition. These procedures were repeated to confirm stable bladder capacity (volume of physiological saline injected until start of micturition) and, thereafter, compounds were administered intravenously to investigate the activities. A change in bladder capacity and micturition pressure after the administration was measured. […] Table 3 Tiagabin hydrochloride was dissolved in distilled water, other drugs were dissolved in physiological saline and the drugs were administered intravenously, respectively. Data are shown as the mean ± standard error. After drug administration, animals showing an overflow urinary incontinence-like cystometrogram (urine leakage without the bladder constriction) were excluded from calculation of micturition pressure. *P<0.05, **P<0.01 (significance to the values obtained before drug administration, paired t test, two-tailed test)
# [4] = system: bilateral common carotid artery-ligated rat under consciousness; assay: Micturition interval in bilateral common carotid artery-ligated rat under consciousness (Test Example 4); conditions: for Micturition interval (relative to before ligation, %) After administration / Micturition pressure (relative to before ligation, %) After administration: 30 minutes after administration; for Micturition interval (relative to before ligation, %) After administration / Micturition pressure (relative to before ligation, %) After administration / Micturition interval (relative to before ligation, %) Before administration / Micturition pressure (relative to before ligation, %) Before administration: mean ± standard error; for Micturition interval (relative to before ligation, %) Before administration / Micturition pressure (relative to before ligation, %) Before administration: after ligation, before drug
# Experimental: The urinary frequency and urinary incontinence suppressing activity of a GABA uptake inhibitor was measured as the ability to increase the micturition interval in bilateral common carotid artery-ligated rat under consciousness as an index. An animal was restricted in a Ballmann cage, and physiological saline was sustained-injected into the bladder at a constant rate (0.1 ml/min.) to induce repeated micturition. After the stable micturition interval was confirmed, common carotid arteries were ligated bilaterally and micturition interval was decreased. A compound was administered intravenously to animals with micturition interval decreased 20% or more following ligation, and the activity was investigated. The micturition interval and micturition pressure before and after drug administration were measured for 30 minutes, and the averages are expressed as the ratio to the value before bilateral common carotid artery-ligation (Table 4). […]
# Tiagabin hydrochloride was dissolved in distilled water and administered intravenously. Crystometograms for 30 minutes before and after drug administration were continuously measured and compared. Data are shown as a ratio to micturition interval and micturition pressure before bilateral common carotid artery-ligation (mean ± standard error). *P<0.05, **P<0.01 (significance relative to before drug administration, paired t test, two-tailed test)
# [5] = 0.3 mg/kg intravenously, 30 minutes starting 15 minutes after administration
# [6] = 1 mg/kg intravenously, 30 minutes starting 15 minutes after administration
# [7] = 3 mg/kg intravenously, 30 minutes starting 15 minutes after administration
# [8] = baseline of the 0.3 mg/kg i.v. group
# [9] = baseline of the 1 mg/kg i.v. group
# [10] = baseline of the 3 mg/kg i.v. group
# [11] = baseline of the 0.1 mg/kg i.v. group
compound,measurement,setting,value
"O=C(O)[C@@H]1CCCN(CCC=C(c2ccccc2)c2ccccc2)C1 [SKF89976A hydrochloride, (R)-1-(4,4-diphenyl-3-butenyl)-3-piperidinecarboxylic acid]","Change in maximum contractile intravesical pressure (Relative to before administration, %)",[1]; 3 mg/kg intravenously,-7.1±3.1%
same,Reflex shutdown time,[1]; 3 mg/kg intravenously,5.0 ± 1.0 min
same,"Change in maximum contractile intravesical pressure (Relative to before administration, %)",[1]; 10 mg/kg intravenously,-12.1±11.5%
same,Reflex shutdown time,[1]; 10 mg/kg intravenously,15.7±3.3* min.
same,"Change in maximum contractile intravesical pressure (Relative to before administration, %)",[1]; 30 mg/kg intravenously,-8.4±10.6%
same,Reflex shutdown time,[1]; 30 mg/kg intravenously,25.1±4.6** min.
"Cc1ccsc1C(=CCCN1CCC[C@@H](C(=O)O)C1)c1sccc1C [Tiagabin hydrochloride, (R)-1-[4,4-bis(3-methyl-2-thienyl)-3-butenyl]-3-piperidinecarboxylic acid]",Micturition interval (min.) After administration,[2]; [5],6.8 ± 0.9 min
same,Micturition pressure (mmHg) After administration,[2]; [5],15.1±2.6 mmHg
same,Micturition interval (min.) After administration,[2]; [6],6.5±1.0* min.
same,Micturition pressure (mmHg) After administration,[2]; [6],14.5±1.5 mmHg
same,Micturition interval (min.) After administration,[2]; [7],7.3±0.5** min.
same,Micturition pressure (mmHg) After administration,[2]; [7],16.5±1.6 mmHg
same,Micturition interval (min.) After administration,"[2]; 3 mg/kg orally, 30 minutes starting 60 minutes after administration",5.6 ± 0.7 min
same,Micturition interval (min.) After administration,"[2]; 10 mg/kg orally, 30 minutes starting 60 minutes after administration",6.1±0.8* min.
same,Micturition interval (min.) Before administration,[2]; [8],6.6 ± 1.5 min
same,Micturition pressure (mmHg) Before administration,[2]; [8],13.9±2.3 mmHg
same,Micturition interval (min.) Before administration,[2]; [9],5.2 ± 0.7 min
same,Micturition pressure (mmHg) Before administration,[2]; [9],14.4±1.4 mmHg
same,Micturition interval (min.) Before administration,[2]; [10],5.1 ± 0.5 min
same,Micturition pressure (mmHg) Before administration,[2]; [10],16.1±1.4 mmHg
same,Micturition interval (min.) Before administration,[2]; baseline of the 3 mg/kg oral group,4.9 ± 0.8 min
same,Micturition interval (min.) Before administration,[2]; baseline of the 10 mg/kg oral group,4.4 ± 0.5 min
same,micturition interval (result in words),"[2]; both intravenous and oral administrations, summary of Table 5 and Table 6",increased micturition interval
same,"Change in bladder capacity (Relative to before administration, %)",[3]; 1 mg/kg intravenously,42.7±35.6%
same,"Change in micturition pressure (Relative to before administration, %)",[3]; 1 mg/kg intravenously,15.2±14.6%
same,"Change in bladder capacity (Relative to before administration, %)",[3]; 3 mg/kg intravenously,236.8±81.2* %
same,"Change in micturition pressure (Relative to before administration, %)",[3]; 3 mg/kg intravenously,29.5±15.6%
same,"Change in bladder capacity (Relative to before administration, %)",[3]; 10 mg/kg intravenously,276.4±29.4** %
same,"Change in micturition pressure (Relative to before administration, %)",[3]; 10 mg/kg intravenously,2.5±10.3%
same,"Change in maximum contractile intravesical pressure (Relative to before administration, %)",[1]; 0.3 mg/kg intravenously,-12.6±5.8%
same,Reflex shutdown time,[1]; 0.3 mg/kg intravenously,4.7 ± 1.6 min
same,"Change in maximum contractile intravesical pressure (Relative to before administration, %)",[1]; 1 mg/kg intravenously,4.5±17.3%
same,Reflex shutdown time,[1]; 1 mg/kg intravenously,11.6 ± 3.8 min
same,"Change in maximum contractile intravesical pressure (Relative to before administration, %)",[1]; 3 mg/kg intravenously,-19.4±11.8%
same,Reflex shutdown time,[1]; 3 mg/kg intravenously,18.0±3.5* min.
same,"Change in maximum contractile intravesical pressure (Relative to before administration, %)",[1]; 10 mg/kg intravenously,-31.6±10.5%
same,Reflex shutdown time,[1]; 10 mg/kg intravenously,24.6±3.1** min.
same,"Micturition interval (relative to before ligation, %) After administration",[4]; 0.1 mg/kg intravenously,78.8±10.0%
same,"Micturition pressure (relative to before ligation, %) After administration",[4]; 0.1 mg/kg intravenously,100.7±2.3%
same,"Micturition interval (relative to before ligation, %) After administration",[4]; 0.3 mg/kg intravenously,92.1±12.8* %
same,"Micturition pressure (relative to before ligation, %) After administration",[4]; 0.3 mg/kg intravenously,86.3±9.2%
same,"Micturition interval (relative to before ligation, %) After administration",[4]; 1 mg/kg intravenously,100.0±6.5** %
same,"Micturition pressure (relative to before ligation, %) After administration",[4]; 1 mg/kg intravenously,105.0±8.4%
same,"Micturition interval (relative to before ligation, %) After administration",[4]; 3 mg/kg intravenously,75.5±15.0* %
same,"Micturition pressure (relative to before ligation, %) After administration",[4]; 3 mg/kg intravenously,106.2 ± 5.3%
same,"Micturition interval (relative to before ligation, %) Before administration",[4]; [11],58.5±3.1%
same,"Micturition pressure (relative to before ligation, %) Before administration",[4]; [11],103.9±1.1%
same,"Micturition interval (relative to before ligation, %) Before administration",[4]; [8],62.5±4.9%
same,"Micturition pressure (relative to before ligation, %) Before administration",[4]; [8],91.3±10.6%
same,"Micturition interval (relative to before ligation, %) Before administration",[4]; [9],63.2±3.3%
same,"Micturition pressure (relative to before ligation, %) Before administration",[4]; [9],111.5±8.3%
same,"Micturition interval (relative to before ligation, %) Before administration",[4]; [10],46.5±11.6%
same,"Micturition pressure (relative to before ligation, %) Before administration",[4]; [10],105.2±10.8%
same,micturition interval (result in words),"[4]; intravenously, interval decreased by bilateral common carotid artery ligation, summary of Table 4",showed an increasing effect on micturition interval
